Reference: patent US5225441A, “Treatment of periodontal disease” (Block Drug Company, Inc., priority 1987, dated 1993)

Experiments:
[1] = biological target: periodontal cyclooxygenase; assay: Inhibition of cyclooxygenase products (14C arachidonic acid incorporation) in inflamed human gingival tissue homogenate; format: biochemical; settings: for % Control: 2 hours at 37° C.
Procedure: Inflamed human gingival tissue was obtained from patients with periodontitis who were undergoing routine periodontal surgery. The tissues were immediately stored in liquid nitrogen prior to use or were used fresh. The assay of cyclooxygenase products was performed as a modification of the assay of El Attar et al., J. Periodon. Res., 21, 169-176 (1986). Pooled tissue was weighed and homogenized at 0°-4° C. with a polytron (Brinkman) homogenizer in a 0.2 M TRIS buffer, pH 8.0, at a final concentration of 20 mg/ml. After centrifugation for 10 minutes at 1200×g, the supernatant was divided into 3 ml aliquots for incubation in the presence or absence of a test compound. The test compounds were tested in triplicate over a log range of 10^-3 to 10^-9 M. The reaction was started by the addition of 0.2 uCi of ^14 C arachidonic acid and carried out for 2 hours at 37° C. The reaction was stopped by the addition of two volumes of ethanol and allowed to remain at room temperature for 30 minutes prior to centrifugation for 10 minutes in order to remove the precipitate. The prostaglandin was then extracted.
Prostanoids were extracted as described by Powell, Methods in Eng., 86, 467 (1982) using a Sep-Pak-C18 cartridge from Walters Associates. The Sep-Pak was prepared by the sequential elusion of 20 milliliters of ethanol and 20 milliliters of water. The sample was then adjusted to 15% ethanol, pH 3.0, with acetic acid and applied to the column. The column was eluted with 20 ml of 15% ethanol, pH 3.0, 20 ml of petroleum ether and then the prostaglandin and Tx (thromboxane) was eluded with 10 ml of methyl formate. Thereafter, the methyl formate was evaporated to dryness with nitrogen and reconstituted in 32% […] (high-pressure liquid chromatography buffer).
These are readily separated and quantified using a 4.6×100 mm RP-18 Spheri-5u column from Brownlee Labs. A Flow-One radioactivity monitor simultaneously measured radioactivity. The elution was monitored at 192 nanometers.
The net incorporation of the ^14 C arachidonate was measured in the absence of the test substance in order to determine the maximal activity of the cyclooxygenase cascade. The percent inhibition for the inhibitors tested was then determined at several concentrations in order to calculate the IC50.

[2] = test system: periodontally supporting bone loss; settings: beagle dog model; clinical index of periodontal disease progression; cited from earlier work

IC50 ([1]; calculated from percent inhibition at several concentrations): 15 µM
% Control ([1]; drug concentration 1 × 10^-4 M, 100 µM): 27.5%
% Control ([1]; drug concentration 1 × 10^-5 M, 10 µM): 55.6%
% Control ([1]; drug concentration 10^-6 M, 1 µM): 92.6%
Compound: CC(C)Cc1ccc(C(C)C(=O)O)cc1 (centres unmarked) [ibuprofen]
Inhibition of periodontally supporting bone loss [2]: effective
